{"source": "patent US20110288114A1", "about": "“COMPOSITIONS FOR THE TREATMENT OF FIBROTIC DISEASES OR CONDITIONS” (Kinemed, Inc., priority 2008, published 2011)", "key": {"[1]": {"details": "as alternative to corticosteroid and/or immunosuppressive drugs; cited from earlier work"}, "[2]": {"test_system": "collagen synthesis in the lung (bleomycin-induced lung fibrosis)", "assay": "Bleomycin-induced lung fibrosis: fractional synthesis of collagen (2H2O labeling, GC/MS of OHP)", "assay_type": "in vivo, mice", "experimental": "Bleomycin administration induces at least a three fold increase in the fractional synthesis of OHP as measured by GC/MS. Inhibition or reversal of the fibrotic response is determined by a reduction in OHP synthesis when compared with the bleomycin-vehicle control.\nAnimals: Female C57BU6 mice, 10 weeks of age at the start of the study were used. Food and water were available ad lib for the study duration. Study groups are as stated in table 1.\nProtocol: Bleomycin (Sigma-Aldrich) was dissolved in sterile saline at a concentration of 1.05 U/ml. 30 μl of the bleomycin solution or the same volume of vehicle (sham control) was installed into the trachea of female C57BI/6 mice by the trans-oral route to yield a dose of 1.5 U/kg of bleomycin. […] Label (8% ^2H2O in drinking water) and drug administration continued for the 2 week study duration.\nOn the day following the last drug administration, the mice were placed under heavy anesthesia and blood was collected via cardiac puncture. The lung was perfused with isotonic saline, removed and weighed. The lung was homogenized with a MiniBeadbeater-96™ (Biospec, Bartlesville, Okla.) bead mill, and the total volume of homogenate was determined. The homogenate was subjected to acetone precipitation in order to obtain the total tissue protein for OHP assessment. The proteins were hydrolyzed by incubation in HCl, dried under vacuum and then suspended in a solution of 50% acetonitrile, 50 mM K2HPO4 and pentafluorobenzyl bromide before incubation. Derivatives were extracted into ethyl acetate, and the top layer was removed and dried by vacuum centrifugation. […] The derivatized OHP was analyzed by GC/MS, performed in the negative chemical ionization mode. […] Incorporation of ^2H into OHP was calculated as the molar fraction of molecules with one excess mass unit above the natural abundance fraction (EM1). Fractional synthesis (f) of collagen was calculated as the ratio of the EM1 value in protein-bound OHP to the maximal value possible at the body ^2H2O enrichment present. […]"}, "[3]": {"test_system": "total collagen (OHP) content of the lung (bleomycin-induced lung fibrosis)", "assay": "Bleomycin-induced lung fibrosis: total OHP content of lung by chloramine-t assay", "assay_type": "in vivo, mice", "details": "noscapine for 2 weeks after bleomycin 1.5 U/kg", "experimental": "Protocol: Bleomycin (Sigma-Aldrich) was dissolved in sterile saline at a concentration of 1.05 U/ml. 30 μl of the bleomycin solution or the same volume of vehicle (sham control) was installed into the trachea of female C57BI/6 mice by the trans-oral route to yield a dose of 1.5 U/kg of bleomycin. […] Label (8% ^2H2O in drinking water) and drug administration continued for the 2 week study duration. […] In addition to the GC/MS analysis, the absolute amount of collagen in the samples was determined by a chloramine-t assay of total OHP, a well established colorimetric method for determining OHP content. Samples of the original homogenate (400 μl) were hydrolyzed (HCl, 500 μl), dried, re-suspended in 1 ml of assay buffer, and incubated overnight. 150 μl of the suspension was pipetted into wells of a 96 well plate. 75 μl of chloramine-t was added to the well and the plate was incubated at room temperature for 20 min. Dimethylaminobenzaldehyde (75 μl) was then added to each well. The plate was incubated at 60° C. for 15 min before being read on a microquant (Bio-Tek Instruments, Inc. MQX200) at 540 nm. OHP standards were prepared and analyzed with the samples. Results were analyzed using GraphPad Prism to interpolate values from the standard curve. […]"}, "[4]": {"test_system": "α-SMA positive lung cells (activated myofibroblasts)", "assay": "Bleomycin-induced lung fibrosis: histology of αSMA positive lung cells", "assay_type": "in vivo, mice", "details": "relative to vehicle+bleomycin control; 2 weeks after bleomycin; FIG. 4", "experimental": "Protocol: Bleomycin (Sigma-Aldrich) was dissolved in sterile saline at a concentration of 1.05 U/ml. 30 μl of the bleomycin solution or the same volume of vehicle (sham control) was installed into the trachea of female C57BI/6 mice by the trans-oral route to yield a dose of 1.5 U/kg of bleomycin. […] Label (8% ^2H2O in drinking water) and drug administration continued for the 2 week study duration. […] The differentiation of fibroblastic cells into myofibroblasts which express α-smooth muscle actin (α-SMA) is a major process the development of fibrosis. αSMA is a well recognized indicator of activated myofibroblasts. A small sample (5 to 20 mg) of the lung was excised from the center of the left lobe, immediately fixed in formalin, and sent for histological examination (Premier Laboratory LLC, Longmont Colo., USA). Briefly, paraffin embedded slides were prepared from the formalin-fixed tissue and then stained using an antibody for αSMA. Prepared slides were scanned, photographed, and subsequently analyzed for the presence of αSMA positive cells using ImageScope software (Aperio Technologies Inc., Vista Ca). Statistics: An analysis of variance followed by a Dunnett's test for comparison with drug vehicle/bleomycin control was used to analyze the data (SigmaStat). Data were considered significant at p<0.05."}, "[5]": {"test_system": "collagen synthesis in the liver (ANIT-induced liver fibrosis)", "assay": "ANIT-induced liver fibrosis: fractional synthesis of collagen (2H2O labeling, GC/MS of OHP)", "assay_type": "in vivo, mice", "details": "for amount of newly synthesized collagen in the liver: separate study", "description": "Alpha-Naphthylisothiocyanate (ANIT) is a hepatotoxicant that damages biliary cells and hepatocytes. Prolonged exposure to ANIT induces bile duct hyperplasia and biliary fibrosis, as well as liver injury. ANIT is conjugated with glutathione in hepatocytes and secreted into the bile (reviewed in Xu, 2004). However, the ANIT-glutathione complexes are unstable and rapidly dissociate in the bile causing the hepatocytes to reuptake the drug. Recycling can continue for many rounds, delaying ANIT elimination and depleting glutathione. In addition to its direct cytotoxic effects, ANIT also induces a hepatic inflammatory response that contributes to the tissue injury. Chronic administration of ANIT to rodents results in a significant increase in liver collagen and is used as an animal model of liver fibrosis (Xu et al, 2004). […] Inhibition or reversal of the fibrotic response is determined by a reduction in collagen synthesis when compared with the ANIT-vehicle control.\nSubjects: Female C57BU6 mice, 10 weeks of age at the start of the study were used. The animals were housed in groups of 5, under standard laboratory conditions, with food and water available ad lib. Study groups are as stated in table 2 (po signifies oral gavage).\nMice were fed a diet adulterated with 0.05% (w/w) ANIT or a control diet for two weeks in order to induce a fibrotic response in the liver. The mice were labeled with 8% ^2H2O (Spectra Stable Isotopes, Columbia, Md.) beginning on the day that ANIT administration began.\nOn the day following the last drug administration, mice were placed under heavy anesthesia, and the liver was perfused and removed. Liver tissue was homogenized with a MiniBeadbeater 96™ bead mill (Biospec, Bartlesville, Okla.) followed by acetone precipitation and vacuum drying. Proteins were hydrolyzed in 6 N HCl (110° C., 16 hours), dried under vacuum and suspended in 1 mL 50% acetonitrile, 50 mM K2HPO4, pH 11. Pentafluorobenzyl bromide was added before the sealed mixture was incubated (100° C.; 1 hour) and extracted into ethyl acetate. The top layer was removed and dried by addition of solid Na2SO4 followed by vacuum centrifugation. Samples were incubated with 50 μL methyl imidazole and 100 μL MTBSTFA, (100° C. for 30 min). The derivative was extracted in water/petroleum ether and dried with Na2SO4. Selected ion monitoring was at mass-to-charge ratios of 445, 446, and 447 for the OH-proline derivatives. Mole % excess M1 enrichment (EM1) and fractional synthesis (f) are calculated.\nStatistics: An analysis of variance followed by a Dunnett's test for comparison with ANIT/vehicle control was used to analyze the data (SigmaStat). Data were considered significant at p<0.05."}, "[6]": {"test_system": "OHP content of the liver (ANIT-induced liver fibrosis)", "assay": "ANIT-induced liver fibrosis: absolute amount of OHP in liver by chloramine-t assay", "assay_type": "in vivo, mice", "experimental": "Mice were fed a diet adulterated with 0.05% (w/w) ANIT or a control diet for two weeks in order to induce a fibrotic response in the liver. The mice were labeled with 8% ^2H2O (Spectra Stable Isotopes, Columbia, Md.) beginning on the day that ANIT administration began. […] In addition to the GC/MS analysis, the absolute amount of OHP in the samples was determined by a chloramine-t assay as described above for the bleomycin studies. Statistics: An analysis of variance followed by a Dunnett's test for comparison with ANIT/vehicle control was used to analyze the data (SigmaStat). Data were considered significant at p<0.05."}, "[7]": {"test_system": "liver collagen content (ANIT-induced liver fibrosis)", "assay": "ANIT-induced liver fibrosis: histological collagen content (Masson's Trichrome stain)", "assay_type": "in vivo, mice", "details": "noscapine administered with ANIT, FIG. 10", "experimental": "Mice were fed a diet adulterated with 0.05% (w/w) ANIT or a control diet for two weeks in order to induce a fibrotic response in the liver. The mice were labeled with 8% ^2H2O (Spectra Stable Isotopes, Columbia, Md.) beginning on the day that ANIT administration began. […] A small sample (75 to 80 mg) of the liver was excised from the lateral right lobe, immediately fixed in formalin, and sent for histological examination (Premier Laboratory LLC, Longmont Colo., USA). Briefly, paraffin embedded slides were prepared from the formalin-fixed tissue and then treated with Masson's Trichrome stain for collagen distribution. Prepared slides were scanned, photographed, and subsequently analyzed for collagen content using ImageScope software (Aperio Technologies Inc., Vista Ca). Statistics: An analysis of variance followed by a Dunnett's test for comparison with ANIT/vehicle control was used to analyze the data (SigmaStat). Data were considered significant at p<0.05."}, "TGF-β signaling": {"test_system": "TGF-β signaling", "details": "low concentrations of paclitaxel; nude mouse model of scleroderma; cited from earlier work"}}, "note": "“Also recorded” adds a separate entry of the source.", "data": [{"smiles": "COc1cc2c(c(OC)c1OC)-c1ccc(OC)c(=O)cc1[C@@H](NC(C)=O)CC2", "note": "[Colchicine, colchicine]", "values": [{"measurement": "safety and efficacy in the treatment of IPF", "setting": "[1]", "value": "safer, but not effective"}]}, {"smiles": "COc1ccc2c(c1OC)C(=O)O[C@@H]2[C@H]1c2c(cc3c(c2OC)OCO3)CCN1C", "note": "[noscapine]", "values": [{"measurement": "bleomycin-induced increase of collagen synthesis (fractional synthesis, percent labeled OHP, f)", "setting": "[2]; noscapine 300 mg/kg po (oral gavage) for 2 weeks from the day of bleomycin, FIG. 5", "value": "blocked the bleomycin-induced increase of collagen synthesis"}, {"measurement": "percent of newly synthesized collagen (% new OHP, f)", "setting": "[2]; noscapine in diet (2 g/kg food, approx. 300 mg/kg) for 2 weeks from the day of bleomycin, FIG. 6", "value": "tended to reduce the % new OH—P, but the effect was not statistically significant; also recorded: tended to reduce the percent of newly synthesized collagen"}, {"measurement": "bleomycin-induced increase of collagen synthesis (fractional synthesis, percent labeled OHP, f)", "setting": "[2]; noscapine ip (10, 30, 100 mg/kg) for 2 weeks from the day of bleomycin 1.5 U/kg trans-oral, FIG. 1", "value": "blocked the bleomycin-induced increase of collagen synthesis"}, {"measurement": "total collagen (OHP) content of the lung", "setting": "[3]; chloramine-t assay, FIG. 2", "value": "blocked by noscapine in a dose related manner"}, {"measurement": "absolute amount of newly synthesized collagen in the lung (f times total OHP content)", "setting": "[3]; FIG. 3", "value": "significantly decreased"}, {"measurement": "number of alpha smooth muscle actin (αSMA) positive cells in lung", "setting": "[4]", "value": "significantly reduced the number of myofibroblasts activated by bleomycin; also recorded: significantly decreased the number of alpha smooth muscle actin (αSMA) positive cells"}, {"measurement": "ANIT-induced elevation of new OHP (percent labeled OHP, f) in the liver", "setting": "[5]; noscapine at 30 and 100 mg/kg po, p<0.05 vs ANIT/vehicle, FIG. 7", "value": "significantly reduced the ANIT-induced elevation of OHP"}, {"measurement": "percent of newly synthesized collagen in the liver (percent labeled OHP, f)", "setting": "[5]; noscapine po (oral gavage) 10, 30, 100 mg/kg with 0.05% ANIT diet for 2 weeks, FIG. 7", "value": "dose dependently reduced the percent of newly synthesized collagen"}, {"measurement": "amount of newly synthesized collagen in the liver", "setting": "[5]; noscapine 300 mg/kg by oral gavage once per day with ANIT, FIG. 12", "value": "tended to decrease the amount of newly synthesized collagen"}, {"measurement": "amount of newly synthesized collagen in the liver", "setting": "[5]; noscapine 300 mg/kg in the diet (2 g/kg food) with ANIT, FIG. 11", "value": "tended to decrease the amount of newly synthesized collagen"}, {"measurement": "total amount of OHP in the whole liver", "setting": "[6]; chloramine-t assay, noscapine po with ANIT for 2 weeks, vs ANIT plus vehicle control, FIG. 8", "value": "significantly reduced the ANIT-induced elevation of OHP content"}, {"measurement": "ANIT-induced elevation of collagen synthesis, absolute (f x [OHP]) in the liver", "setting": "[6]; noscapine at 30 and 100 mg/kg po, p<0.05 vs ANIT/vehicle, FIG. 9", "value": "significantly reduced the ANIT-induced elevation of collagen synthesis"}, {"measurement": "amount of newly synthesized collagen in the whole liver (f x [OHP])", "setting": "[6]; noscapine po with ANIT for 2 weeks, vs ANIT plus vehicle control, FIG. 9", "value": "significantly reduced"}, {"measurement": "histologically determined collagen content of liver", "setting": "[7]", "value": "significantly decreased ANIT-induced collagen content; also recorded: significant decrease in collagen content"}]}, {"smiles": "CC(=O)O[C@H]1C(=O)[C@@]2(C)[C@H]([C@H](OC(=O)c3ccccc3)[C@]3(O)C[C@H](OC(=O)[C@H](O)[C@@H](NC(=O)c4ccccc4)c4ccccc4)C(C)=C1C3(C)C)[C@]1(OC(C)=O)CO[C@@H]1C[C@@H]2O", "note": "[Paclitaxel, paclitaxel]", "values": [{"measurement": "Smad2 and Smad3 phosphorylation in SSc grafts", "setting": "TGF-β signaling", "value": "markedly suppressed Smad2 and Smad3 phosphorylation"}, {"measurement": "collagen deposition in SSc grafts", "setting": "TGF-β signaling", "value": "decreased collagen deposition"}]}]}
